SMILES strings stand for the structures.

1 compound from patent publication US4788304A, “Phospholipase A2 inhibitors” (American Home Products Corporation, priority 1987, dated 1988) can be followed below.

For assay [1], the system named is oxazolone-induced contact hypersensitivity in the mouse ear. In words: Oxazolone-induced contact hypersensitivity in the mouse ear. It is filed as in vivo, mouse (Swiss Webster). The settings on record: dosed at 1 mg/ear. As to the method:
The assay of this Example measures the ability of the compounds in the scope of the invention to inhibit oxazolone-induced contact hypersensitivity in the mouse ear.
Female, Swiss Webster mice (8 weeks old) are placed into groups of 6 and the abdominal area of each is shaved. The mice are sensitized to oxazolone (4-ethoxymethylene-2-phenyl-oxazol-5-one) by applying 100 μl of a 2% solution in 95% alcohol directly onto the shaved abdomen using an automatic pipette and rubbing the residual oxazolone into the skin with a round wooden stick. Six days after sensitization each mouse is challenged by applying 20 μl of a 2% oxazolone solution in 95% alcohol to the right ear (10 μl on each side) and 20 μl of alcohol alone to the left ear. Compounds for topical applications are prepared in acetone and administered to the right ear 30 min after challenge or 30 min prior to and 5 h after challenge; acetone (vehicle) is applied to the left ear. Compounds for oral administration are suspended in 0.5 ml of 0.5% methyl cellulose and given ten min prior to challenge. Ear thickness of both ears is measured in mm×10^-2 at 24 and 48 h after challenge using an Oditest caliper. Edema is calculated by subtracting the left ear thickness from the right ear thickness. Drug effects are determined by calculating the percentage change from control for each time period.

Assay [2] concerns synthesis of the arachidonic acid cyclooxygenase oxidation product TxB2. Kind of assay: Inhibition of TxB2 synthesis (cyclooxygenase product) by rat polymorphonuclear leukocytes. It is filed as cell-based, rat (female Wistar). The settings on record: Leukocyte, A23187-stimulated rat PMN.
Assay [3] relates to bronchospasm induced in guinea pigs by endogenous mediators of the bronchoconstriction. In words: Ovalbumin-induced bronchospasm in guinea pigs. The class given is in vivo, guinea pig (Hartley). The settings on record: Cavia porcellus; intraduodenally administered, 10 minutes before intravenously administered ovalbumin challenge. As to the method:
The assay of this Example measures the in vivo ability of the compounds in the scope of the invention to inhibit the bronchospasm induced in guinea pigs by endogenous mediators of the bronchoconstriction.
Male Hartley strain guinea pigs weighing 250-350 g are sensitized to chicken ovalbumin (OA) (10 mg i.p.) on days 1 and 3 and used starting on day 26. The animals are anesthetized with pentobarbital sodium (50 mg/kg, i.p.), bilateral vagotomy is performed, and the jugular vein is cannulated for injection of drugs and the carotid artery for monitoring blood pressure. The trachea is cannulated for artificial ventilation by miniature Starling pump and for indirect measurement of respiratory volume changes as described, infra. Succinylcholine (2 mg/kg, i.v.) is administered to arrest spontaneous respiration. […]
Respiratory volume changes are determined by a calibrated piston whose travel is recorded, via a linear transducer, on a Beckman Dynograph recorder. Maximal bronchoconstrictor volume is determined by clamping off the trachea at the end of the experiment. Overflow volumes at minutes 1, 3 and 5 are obtained from the recorded charts.
Area under the volume overflow curve (AUC) is estimated, using the overflow values at 1, 3 and 5 minutes, and expressed as a percentage of the maximal overflow AUC (equation 1): [formula] […]

Assay [4] relates to TPA-induced mouse ear edema. In words: TPA-induced murine ear edema test. The settings on record: 1 mg/ear, 30 min after TPA, measured 4 h after TPA. The class given is in vivo, mouse (Swiss Webster).
The test system of assay [5] is synthesis of LTB4 by rat glycogen-elicited polymorphonuclear leukocytes (PMN). Kind of assay: Inhibition of LTB4 synthesis by rat glycogen-elicited polymorphonuclear leukocytes (PMN). The class given is cell-based, rat (female Wistar). The settings on record: Leukocyte, A23187-stimulated rat PMN.

By inhibition is commonly meant the relative decrease from the control value, in per cent. Lower therefore signals little suppression. As usually defined, the ED50 is the dose at which the effect has come halfway, by size or by number of responders. The low end stands for an effect at a small dose, the high end for a need for a large dose. Turning to `COC(=O)C1(C(=O)CCCCOc2ccc(Cl)cc2)CO1` (centres unmarked) [Example 6A, 2-[5-(4-Chlorophenoxy)-1-oxopentyl]-2-oxiranecarboxylic acid methyl ester], the “% Inhibition (oxazolone contact hypersensitivity)” value in assay [1] came out at 34.3%. The inhibition at 10 µM worked out at 30% in assay [2] and 11% in assay [5]. Moreover, it took a dose of 13.5 mg/kg to reach the 50% effect level in assay [3] (ED50). Further, in assay [4], the “Mouse Ear Edema Assay, % Change from Control, TOPICAL, TPA” value is on record as -42%.
